What all share (experiment): NCI tumour cell line growth inhibition, 48 h
Test [1] concerns ACHN renal.
Test [2] concerns HS 578T breast.
In test [3] the test system is M14 melanoma.
Test [4] concerns PC-3 prostate.
The test system of test [5] is SR leukemia.
For test [6], the system named is T-47D breast.
Test [7] deals with TK-10 renal.
Test [8] has as its system DLD-1 colon.
Test [9] relates to DMS 273 small cell lung.
In test [10] the test system is HL-60(TB) leukemia.
Test [11] relates to KM12 colon.
The subject of test [12] is KM20L2 colon.
Test [13] concerns MALME-3M melanoma.
Test [14] concerns MCF7 breast.
For test [15], the system named is P388 leukemia.
The test system of test [16] is P388/ADR leukemia.
In test [17] the test system is SN12K1 renal.
Test [18] deals with SNB-78 CNS.
In test [19] the test system is UACC-62 melanoma.
The test system of test [20] is XF 498 CNS.

This note sets out measurements from PubChem BioAssay (NCI).

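Cultured in 96-well plates, cells were exposed to test compound for 48 hours across five concentrations. The concentration for full growth arrest is given as TGI.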

`CSCCC(NC(=O)OCc1ccccc1)NC(=O)OCc1ccccc1`: the TGI in [1], in test [2], in test [3], in test [4], in test [5] and in test [6] was greater than 100 µM in each case. The TGI in test [7] was greater than 100 µM.
Regarding `NC1(C(=O)O)CCCC1`, the TGI in test [8], in [9], in [10], in test [11], in [12] and in [13] was greater than 625 µM each time. Moreover, the TGI is greater than 625 µM in [14]; greater than 625 µM in [15]; greater than 625 µM in test [16]; greater than 625 µM in [17]; greater than 444 µM in test [18]; greater than 625 µM in test [19]. Moreover, the TGI in [20] is 6.25 µM.
